Structures can show the parent of a compound that is named as a salt.
How the values were obtained:
human MCH1 receptor = target: T1, human MCH1 receptor (Homo sapiens, UniProt Q99705); assay: MCH1 binding assay I or II (radioligand binding, membranes of CHO cells expressing the receptor); details: estimated based on the measured percent inhibition
T1 construct: host or cells: CHO cells (assay I)
From the text: Binding Assay I for Human Melanin-Concentrating Hormone (MCH1) Receptor
Evaluation of the affinity of compounds for the human MCH1 receptor was accomplished in transfected Chinese Hamster Ovary (CHO) cells determined in a radioligand binding assay, as described in MacDonald et al., “Molecular characterization of the melanin-concentrating hormone/receptor complex: identification of critical residues involved in binding and activation”, Mol Pharmacol., 58:217 (2000). […] Nonspecific binding was determined in the presence of 0.1 μM MCH. […] The filters were dried, then counted for radioactivity in a scintillation counter (Topcount, Packard) using a scintillation cocktail (Microscint 0, Packard).
The results are expressed as a percent inhibition of the control radioligand specific binding. The IC50 value (concentration causing a half-maximal inhibition of control specific binding) and Hill coefficient (nH) were determined by non-linear regression analysis of the competition curve using Hill equation curve fitting. The inhibition constant (Ki) was calculated from the Cheng Prusoff equation: (Ki=IC50/(1+(L/KD)), where L=concentration of radioligand in the assay, and KD=affinity of the radioligand for the receptor). […]
The results are expressed as a percent inhibition of the control radioligand specific binding. […]

T1 sequence (Q99705 whole entry): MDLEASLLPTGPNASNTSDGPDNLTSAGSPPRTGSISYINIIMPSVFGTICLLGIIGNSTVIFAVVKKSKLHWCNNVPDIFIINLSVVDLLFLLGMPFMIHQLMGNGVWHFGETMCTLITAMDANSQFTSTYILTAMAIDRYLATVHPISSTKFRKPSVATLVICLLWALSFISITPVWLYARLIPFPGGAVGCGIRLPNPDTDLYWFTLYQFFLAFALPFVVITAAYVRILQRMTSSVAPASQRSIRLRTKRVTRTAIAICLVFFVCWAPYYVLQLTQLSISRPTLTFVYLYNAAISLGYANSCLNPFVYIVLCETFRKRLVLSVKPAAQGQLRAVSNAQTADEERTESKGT

Cc1ccc(-c2ccn(-c3ccc4c(cnn4CCN4CCCC4)c3)c(=O)c2)cc1.Cl
melting point: 240 to 246 °C

Cl.O=c1cc(-c2ccc(OC(F)(F)F)cc2)ccn1-c1ccc2c(cnn2CCN2CCCC2)c1
melting point: 202 to 209 °C

Cl.N#Cc1ccc(-c2ccn(-c3ccc4c(cnn4CCN4CCCC4)c3)c(=O)c2)cc1
melting point: 92 to 96 °C

COc1ccc(-c2ccn(-c3ccc4c(cnn4CCN4CCCC4)c3)c(=O)c2)cc1.Cl
melting point: 105 to 110 °C

Cl.N#Cc1cc(F)ccc1-c1ccn(-c2ccc3c(cnn3CCN3CCCC3)c2)c(=O)c1
melting point: 81 to 86 °C

Cl.O=c1cc(-c2ccc(Cl)cc2)ccn1-c1ccc2c(cnn2CCN2CCCC2)c1
melting point: 255 to 260 °C (dec.)

COc1ccc(-c2ccn(-c3ccc4c(cnn4CCN4CCCC4)c3)c(=O)c2)c(OC)c1.Cl
melting point: 95 to 115 °C

Cl.O=c1cc(-c2ccc(F)cc2F)ccn1-c1ccc2c(cnn2CCN2CCCC2)c1
melting point: 235 to 255 °C

CC(C)Oc1ccc(-c2ccn(-c3ccc4c(cnn4CCN4CCCC4)c3)c(=O)c2)cc1.Cl
melting point: 235 to 250 °C

Cl.O=c1cc(-c2ccc(C(F)(F)F)cc2C(F)(F)F)ccn1-c1ccc2c(cnn2CCN2CCCC2)c1
melting point: 235 to 245 °C

CCCCOc1ccc(-c2ccn(-c3ccc4c(cnn4CCN4CCCC4)c3)c(=O)c2)c(C)c1.Cl
melting point: 80 to 95 °C

Cc1ccccc1-c1ccn(-c2ccc3c(cnn3CCN3CCCC3)c2)c(=O)c1.Cl
melting point: 80 to 95 °C

Cc1cc(OCc2ccccc2)ccc1-c1ccn(-c2ccc3c(cnn3CCN3CCCC3)c2)c(=O)c1.Cl
melting point: 75 to 85 °C

COc1cc(Cl)ccc1-c1ccn(-c2ccc3c(cnn3CCN3CCCC3)c2)c(=O)c1.Cl
melting point: 248 to 256 °C

Cl.O=c1cc(-c2ccc3c(c2)OCO3)ccn1-c1ccc2c(cnn2CCN2CCCC2)c1
melting point: 75 to 85 °C

COc1ccc(-c2ccn(-c3ccc4c(cnn4CCN4CCCC4)c3)c(=O)c2)c(C)c1.Cl
melting point: 205 to 215 °C

Cl.O=c1cc(-c2cc3ccccc3s2)ccn1-c1ccc2c(cnn2CCN2CCCC2)c1
melting point: 260 to 264 °C

Cc1ccc(-c2ccn(-c3ccc4c(cnn4CCN4CCCC4)c3)c(=O)c2)nc1.Cl
melting point: 230 to 234 °C

Cl.O=c1cc(-c2ccc(C(F)(F)F)cc2)ccn1-c1ccc2c(cnn2CCN2CCOCC2)c1
melting point: 248 to 250 °C (dec.)

Cl.O=c1cc(-c2cc3ccccc3o2)ccn1-c1ccc2c(cnn2CCN2CCCC2)c1
melting point: 256 to 260 °C

CN(C)CCn1ncc2cc(-n3ccc(-c4ccc(C(F)(F)F)cc4)cc3=O)ccc21.Cl
melting point: 222 to 224 °C

Cl.O=c1cc(-c2ccc(C(F)(F)F)cc2)ccn1-c1ccc2c(cnn2CCN2CCNCC2)c1
melting point: 222 to 224 °C (dec.)

CN(C)CCCn1ncc2cc(-n3ccc(-c4ccc(C(F)(F)F)cc4)cc3=O)ccc21.Cl
melting point: 209 to 211 °C

Cl.NCCCn1ncc2cc(-n3ccc(-c4ccc(C(F)(F)F)cc4)cc3=O)ccc21
melting point: 222 to 224 °C (dec.)

Cl.O=c1cc(-c2ccc(C(F)(F)F)cc2)ccn1-c1ccc2c(cnn2C[C@@H]2CCCN2)c1
melting point: 241 to 245 °C

CN(C)C[C@@H](O)Cn1ncc2cc(-n3ccc(-c4ccc(C(F)(F)F)cc4)cc3=O)ccc21.Cl
melting point: 210 to 213 °C

Cl.O=c1cc(-c2ccc(C(F)(F)F)cc2)ccn1-c1ccc2c(cnn2C[C@H](O)CN2CCCC2)c1
melting point: 116 to 119 °C

Cl.O=c1cc(-c2ccc(F)cc2)ccn1-c1ccc2c(cnn2CCN2CCCC2)c1
melting point: 115 to 120 °C

Cl.O=c1cc(-c2ccc(C(F)(F)F)cc2)ccn1-c1ccc2c(cnn2CCN2CC3CC2CO3)c1 (stereo not shown)
melting point: 148 to 150 °C

Cl.O=c1cc(-c2ccc(Cl)cc2F)ccn1-c1ccc2c(cnn2CCN2CCCC2)c1
melting point: 215 to 230 °C

Cl.O=c1cc(-c2ccc(C(F)(F)F)cc2F)ccn1-c1ccc2c(cnn2CCN2CCCC2)c1
melting point: 80 to 95 °C

COc1ccc(-c2ccn(-c3ccc4c(cnn4CCN4CCCC4)c3)c(=O)c2)c(F)c1.Cl
melting point: 230 to 240 °C

COc1ccc(-c2ccn(-c3ccc4c(cnn4CCN4CCCC4)c3)c(=O)c2)c(Cl)c1.Cl
melting point: 225 to 235 °C

CCOc1ccc(-c2ccn(-c3ccc4c(cnn4CCN4CCCC4)c3)c(=O)c2)cc1.Cl
melting point: 255 to 265 °C

Cl.O=c1cc(-c2ccc(OC(F)(F)F)cc2F)ccn1-c1ccc2c(cnn2CCN2CCCC2)c1
melting point: 215 to 225 °C

Cc1cc(OC(F)(F)F)ccc1-c1ccn(-c2ccc3c(cnn3CCN3CCCC3)c2)c(=O)c1.Cl
melting point: 185 to 195 °C

Cl.O=c1cc(-c2ccc3ccccc3c2)ccn1-c1ccc2c(cnn2CCN2CCCC2)c1
melting point: 128 to 134 °C

Cl.Cn1ncc2cc(-c3ccn(-c4ccc5c(cnn5CCN5CCCC5)c4)c(=O)c3)ccc21
melting point: 55 to 65 °C

Cl.O=c1cc(-c2ccc(C(F)(F)F)cn2)ccn1-c1ccc2c(cnn2CCCN2CCCC2)c1
melting point: 110 to 120 °C

Cl.O=c1cc(-c2ccc(N3CCCCC3)cc2)ccn1-c1ccc2c(cnn2CCN2CCCC2)c1
melting point: 80 to 90 °C

Cc1ccc2oc(-c3ccn(-c4ccc5c(cnn5CCN5CCCC5)c4)c(=O)c3)nc2c1.Cl
melting point: 270 to 280 °C

COc1ccc2[nH]c(-c3ccn(-c4ccc5c(cnn5CCN5CCCC5)c4)c(=O)c3)cc2c1.Cl
melting point: 275 to 280 °C

Cl.O=c1cc(-c2ccc(-n3cccn3)cc2)ccn1-c1ccc2c(cnn2CCN2CCCC2)c1
melting point: 271 to 275 °C

CC1CC=C(c2ccn(-c3ccc4c(cnn4CCN4CCCC4)c3)c(=O)c2)CC1.Cl (stereo not shown)
melting point: 256 to 260 °C

CC1CCC(c2ccn(-c3ccc4c(cnn4CCN4CCCC4)c3)c(=O)c2)CC1.Cl (stereo not shown)
melting point: 80 to 85 °C

Cl.O=c1cc(-c2cccc(Cl)c2)ccn1-c1ccc2c(cnn2CCN2CCCC2)c1
melting point: 118 to 125 °C

O=c1cc(-c2cccc3ccccc23)ccn1-c1ccc2c(cnn2CCN2CCCC2)c1 (as salt: hydrochloride)
melting point: 128 to 133 °C

O=c1cc(-c2ccc3ccccc3n2)ccn1-c1ccc2c(cnn2CCN2CCCC2)c1 (as salt: hydrochloride)
melting point: 220 to 225 °C

COc1ccc2c(c1)cc(-c1ccn(-c3ccc4c(cnn4CCN4CCCC4)c3)c(=O)c1)n2C [Example 65, 4-(5-Methoxy-1-methyl-1H-indol-2-yl)-1-(1-(2-(pyrrolidin-1-yl)ethyl)-1H-indazol-5-yl)pyridin-2(1H)-one dihydrochloride]
Ki (human MCH1 receptor): ~3 µM
